Measured values published in patent US20100278789A1, “METHODS OF GENERATING EXPANDED AND RE-DIFFERENTIATED ADULT ISLET BETA CELLS CAPABLE OF PRODUCING INSULIN” (priority 2007, published 2010).

Columns and labels:
eGFP+ human islet cells = experiment: Insulin immunostaining of eGFP+ islet cells incubated with diazoxide after viral infection; assay type: cell-based; set-up: dose or concentration left out as unconfirmed; settings: diazoxide following viral infection, days 5-6 of culture
[1] = tested on: cultured human islet cells; experiment: Immunoblotting for cleaved PARP (apoptosis) in islet cells; assay type: cell-based
Description: (§1) HES1 inhibition and lineage tracing: HES1 shRNA ([…])—SEQ ID NO: 7 and a non-target shRNA, cloned in pLKO.1 lentiviral vector, were obtained from the RNAi Consortium (Sigma-Aldrich). Virus was produced in 293T cells following cotransfection with the pCMVdR8.91 and pMD2.G packaging plasmids. The culture medium was harvested 48 hours later. Islet cells cultured for 1-2 days were washed with PBS and infected at MOI 2.5:1 in CMRL 1066 medium containing 8 μg/ml polybrene overnight. The medium was then replaced with regular culture medium. Four days after infection, the cells were selected for puromycin resistance (1 μg/ml) for 3 days. Two weeks after infection the cells were harvested for further analysis. Lineage tracing was performed using the RIP-Cre and a pTrip CMV-loxP-DsRed2-loxP-eGFP viruses as described herein below. Briefly, islet cells cultured for 1-2 days were infected with a 1:1:1 mixture of the 3 viruses (shRNA+RIP-Cre+pTrip CMV-loxP-DsRed2-loxP-eGFP) at a total MOI 4:1. Selection and further analysis were carried out as above.
(§2) Immunoblotting: Total cellular protein was extracted in 0.5% NP40 containing a protease inhibitor cocktail (Roche). Protein concentration was determined by the BCA method (Pierce, Rockford, Ill.). […] Loading was monitored using goat-anti-beta-actin (Santa Cruz, 1:1000). […]

[2] = tested on: Beta cell derived labeled cells at P5; experiment: Insulin expression (RT-PCR) in beta cell derived labeled cells treated with gamma-secretase inhibitor; assay type: cell-based, human; settings: 300 nM, 4 days, vs untreated or DMSO
Description: Beta cell derived labeled cells at P5 treated for 4 days with 300 nM gamma-secretase inhibitor (S,S)-2-[2-(3,5-difluorophenyl)acetylamino]-N-(5-methyl-6-oxo-6,7-dihydro-5H-dibenzo [b,d]azepin-7-yl)propionamide (DBZ). Control cells were either untreated, or treated with DMSO (solvent). Medium with compound was changed every 48 hours.
RT-PCR analyses: As described for Example 1.

HES1 [3] = experiment: Immunoblotting for HES1 in islet cells infected at culture initiation with HES1 shRNA virus; assay type: cell-based, human; settings: islet cells infected after 1-2 days of culture, analysed 14 days after infection
Description: as §1, §2

[4] = tested on: cultured human islet cells; experiment: Insulin immunostaining of islet cells and eGFP+ cells after HES1 shRNA infection; assay type: cell-based
Description: as §1
(§3) Immunofluorescence: Cells were plated in 24-well plates on sterilized coverslips and fixed in 4% paraformaldehyde. Cells were permeabilized with 0.25% NP40 for 10 minutes and blocked for 10 minutes at room temperature in 1% bovine serum albumin, 10% FBS, and 0.2% saponin. […]

[5] = tested on: cultured human islet cells; experiment: Replication of cultured islet cells (BrdU incorporation, Ki67 staining) after HES1 shRNA infection; assay type: cell-based; settings: 14 days after infection
Description: as §1, §3

HES1 [6] = experiment: Screening of 4 HES1 shRNA sequences in 293T cells, HES1 immunoblotting; assay type: cell-based
Description: Immunoblotting: Total cellular protein was extracted in 0.5% NP40 containing a protease inhibitor cocktail (Roche). Protein concentration was determined by the BCA method (Pierce, Rockford, Ill.). 70 μg protein were separated on 12% sodium dodecyl sulphate-polyacrylamide gels and electroblotted onto PDF membranes. The membranes were incubated with rabbit-anti-HES1 (1:1000) or rabbit-anti-PARP (Cell Signaling, 1:1000). Loading was monitored using goat-anti-beta-actin (Santa Cruz, 1:1000). The bound antibody was visualized with the appropriate horseradish peroxidase-conjugated anti-IgG (Jackson) and SuperSignal West Pico Chemiluminescent Substrate (Pierce). Cells treated with 1 μm staurosporine for 6 hours were used as positive control for the PARP blot.
Inhibition of HES1 expression prevents induction of beta-cell replication: To further correlate the induction of beta-cell replication with HES1 upregulation, HES1 induction during the initial weeks of culture was inhibited using shRNA. […] Isolated human islets were dissociated, and the cells were infected with a lentivirus encoding HES1 shRNA before culture under standard conditions. Selection for drug resistance allowed elimination of uninfected cells. Cells infected with a non-target shRNA lentivirus and selected under similar conditions served as control. […]

[7] = tested on: dedifferentiated human islet cells expanded in culture; experiment: Redifferentiation of dedifferentiated expanded human islet cells by HES1 shRNA (immunoblotting, RT-PCR, insulin ELISA, morphology); assay type: cell-based
Description: Human islet cells were cultured for 4-5 weeks as described for Example 1. They were then infected with lentiviruses expressing HES1 (SEQ ID NO: 7) or nontarget shRNAs. Nine days following infection the cells were analyzed as described for Example 1. Primers used for RT-PCR analysis are described in Table 1, herein above, […]

[8] = tested on: sorted eGFP+ cells derived from beta cells; experiment: HES1 shRNA in sorted eGFP+ cells expanded 7 population doublings, qRT-PCR and morphology; assay type: cell-based, human
Description: Virus was produced in 293T cells following cotransfection with the pCMVdR8.91 and pMD2.G packaging plasmids. The culture medium was harvested 48 hours later. […] They were then infected with HES1 or nontarget shRNA viruses, and 4 days later trypsinized and shifted to serum free medium (SFM). RNA was extracted following 4 more days and analyzed by qRT-PCR.
RNA analyses: As described for Example 1.

[9] = tested on: cultured human islet cells; experiment: qPCR analysis of RNA from islet cells 14 days after HES1 shRNA infection; assay type: cell-based; settings: 14 days after infection
Description: as §1
RNA analyses: Total RNA was extracted using High Pure RNA isolation kit (Roche). cDNA was synthesized using SuperScript III (Invitrogen). qPCR was performed using a Prism 7300 ABI Real Time PCR System (Applied Biosystems). Relative quantitative analysis was performed according to the comparative CT method by using the arithmetic formula 2̂^−(ΔΔct). The cDNA levels were normalized to human ribosomal protein P0 (RPLP0) cDNA.

[10] = cells cultured 4-5 weeks, 9 days after infection, immunoblotting

CC1=NS(=O)(=O)c2cc(Cl)ccc2N1 [diazoxide]
fraction of eGFP+ cells that were insulin-positive (eGFP+ human islet cells): 84.8±5.8%

CN[C@@H]1C[C@H]2O[C@@](C)([C@@H]1OC)n1c3ccccc3c3c4c(c5c6ccccc6n2c5c31)C(=O)NC4 [staurosporin, staurosporine, reference compound]
PARP cleavage, immunoblotting (positive control) ([1]; uninfected cells, 1 μm staurosporine for 6 hours): cleaved PARP

C[C@H](NC(=O)Cc1cc(F)cc(F)c1)C(=O)N[C@@H]1C(=O)N(C)c2ccccc2-c2ccccc21 [gamma secretase inhibitor, (S,S)-2-[2-(3,5-difluorophenyl)acetylamino]-N-(5-methyl-6-oxo-6,7-dihydro-5H-dibenzo [b,d]azepin-7-yl)propionamide]
insulin expression [2]: increase

TGGCCAGTTTGCTTTCCTCAT (chemistry not given here) [HES1 shRNA, HES1 shRNA cloned in pLKO.1 lentiviral vector, obtained from the RNAi Consortium (Sigma-Aldrich)]
HES1 protein levels, lower compared with cells infected with the control virus (HES1 [3]): up to 6 × | cell apoptosis, immunoblotting for cleaved PARP ([1]; HES1 shRNA virus vs non-target virus, 14 days after infection): did not correlate with an increase in cell apoptosis | fraction of insulin-positive cells among eGFP+ cells, higher [4]: 3 fold | number of insulin-positive cells, higher than control virus ([4]; p<0.016): 4 fold | replication rate, Ki67 staining in eGFP+ cells derived from beta cells [5]: lower replication rate | cell proliferation, staining for BrdU incorporation ([5]; compared with control vector): diminished cell proliferation | efficiency among 4 HES1 shRNA sequences, based on reduction in HES1 protein levels (HES1 [6]): most efficient | insulin expression by insulin ELISA and immunostaining ([7]; 9 days after infection): increase | NEUROD1 transcripts ([7]; 9 days after infection, RT-PCR): significant increase | PDX1 transcripts ([7]; 9 days after infection, RT-PCR): significant increase | insulin transcripts ([7]; 9 days after infection, RT-PCR): significant increase | p57, RNA analysis ([7]; 9 days after infection, RT-PCR): increase | cellular HES1 protein levels [7, 10]: decrease | p57 levels (protein) [7, 10]: increase | morphological change ([7]; cells expressing HES1 shRNA): tended to form clusters | upregulation of transcripts encoding insulin, PDX1, NEUROD1, IAPP, and PC1 ([8]; eGFP+ vs eGFP− cells, qRT-PCR): occurred preferentially in eGFP^+ cells | induction of beta-cell transcripts, combination of SFM with HES1 shRNA ([8]; shRNA infection, 4 days later shifted to SFM, RNA after 4 more days): pronounced additive effect | morphological changes in response to HES1 shRNA, eGFP+ compared with eGFP− cells ([8]; sorted cells): much more pronounced in eGFP^+ cells | insulin transcripts, lower compared with primary islets [9]: 20 fold | levels of NOTCH transcripts [9]: did not affect | levels of PDX1 and NEUROD1 transcripts relative to primary islets [9]: comparable to those in primary islets | insulin transcripts, higher compared with cells infected with control virus ([9]; p<0.01): 5.7 fold | p57 transcripts, higher than in cells infected with control virus ([9]; p<0.04): 5.7 fold | PDX1 transcript levels, higher than control virus ([9]; p<0.05): 5.6 fold | NEUROD1 transcript levels, higher than control virus ([9]; p<5.45×10^−5): 3.7 fold
